In PubChem BioAssay AID248 (DTP/NCI, 2004) one finds T/C data, which are given here for 17 compounds.

The test system of this assay is L1210 leukemia ip in BDF1 mice, survival T/C. Kind of assay: NCI In Vivo Anticancer Drug Screen. Data for tumor model L1210 Leukemia (intraperitoneal) in B6D2F1 (BDF1) mice. As to conditions: endpoint: mean survival time, higher = longer survival. The essentials:
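Transplanted-tumor mice were given test agent; controls received vehicle only. Survival readings from the two groups were divided (treated over control).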

Setting [1] is: dose: 100.0 mg/kg/injection, schedule: Q04DX003 (ip), vehicle: Klucel (hydroxypropylcellulose) (HPC).
[2] abbreviates: dose: 200.0 mg/kg/injection, schedule: Q04DX003 (ip), vehicle: Klucel (hydroxypropylcellulose) (HPC).
The mark [3] stands for this setting: dose: 100.0 mg/kg/injection, schedule: Q04DX003 (ip), vehicle: saline with Tween-80.
[4] abbreviates: dose: 200.0 mg/kg/injection, schedule: Q04DX003 (ip), vehicle: saline with Tween-80.
[5] abbreviates: dose: 100.0 mg/kg/injection, schedule: Q01DX001 (ip), vehicle: saline.
The mark [6] stands for this setting: dose: 100.0 mg/kg/injection, schedule: Q04DX003 (ip), vehicle: saline.
Where [7] appears, read: dose: 200.0 mg/kg/injection, schedule: Q04DX003 (ip), vehicle: saline.
Setting [8] is: dose: 400.0 mg/kg/injection, schedule: Q04DX003 (ip), vehicle: saline.
Where [9] appears, read: dose: 100.0 mg/kg/injection, schedule: Q01DX009 (ip), vehicle: saline.
The mark [10] stands for this setting: dose: 200.0 mg/kg/injection, schedule: Q01DX009 (ip), vehicle: saline.
Setting [11] is: dose: 400.0 mg/kg/injection, schedule: Q01DX009 (ip), vehicle: saline.
[12] abbreviates: dose: 400.0 mg/kg/injection, schedule: Q04DX003 (ip), vehicle: saline with Tween-80.
[13] abbreviates: dose: 100.0 mg/kg/injection, schedule: Q01DX001 (ip), vehicle: saline with Tween-80.
Where [14] appears, read: dose: 200.0 mg/kg/injection, schedule: Q01DX001 (ip), vehicle: saline with Tween-80.
[15] abbreviates: dose: 400.0 mg/kg/injection, schedule: Q01DX001 (ip), vehicle: saline with Tween-80.
The mark [16] stands for this setting: dose: 100.0 mg/kg/injection, schedule: Q01DX009 (ip), vehicle: saline with Tween-80.
Setting [17] is: dose: 200.0 mg/kg/injection, schedule: Q01DX009 (ip), vehicle: saline with Tween-80.
Where [18] appears, read: dose: 400.0 mg/kg/injection, schedule: Q01DX009 (ip), vehicle: saline with Tween-80.
[19] abbreviates: dose: 200.0 mg/kg/injection, schedule: Q01DX001 (ip), vehicle: saline.
Where [20] appears, read: dose: 400.0 mg/kg/injection, schedule: Q04DX003 (ip), vehicle: Klucel (hydroxypropylcellulose) (HPC).

Structures are written as SMILES. Several values for one entry are separate records, joined by “and”; a condition that tells them apart may be missing. Equal entries are not always repeated. Toxic doses and inconclusive results are not listed.

Turning to `CC(C)(C)C(=O)Cn1nnnc1C(=O)C(C)(C)C`, the T/C reads like this: (dose: 50.0 mg/kg/injection, schedule: Q04DX003 (ip), vehicle: Klucel (hydroxypropylcellulose) (HPC)) 105 % of control; (dose: 100.0 mg/kg/injection, schedule: Q01DX001 (ip), vehicle: Klucel (hydroxypropylcellulose) (HPC)) 105 % of control; under setting [1], 103 % of control; (dose: 200.0 mg/kg/injection, schedule: Q01DX001 (ip), vehicle: Klucel (hydroxypropylcellulose) (HPC)) 108 % of control; under setting [2], 100 % of control.

Regarding `CC(C)(C)C(=O)CC(O)(C(F)(F)Cl)C(F)(F)Cl`, the T/C was 107 % of control under setting [3] and 91 % of control under setting [4].

On to `CC(=O)/C(=C\c1ccccc1)CNC(C)(C)C`, for which the T/C under setting [5] is 92 % of control.

Turning to `CCOC(=O)C1C(=O)C(=O)N2CCCC12` (centres undefined), the T/C under setting [6] is 107 % of control, the T/C under setting [7] was 96 % of control and the T/C under setting [8] was 98 % of control.

Take `C[C@@H]1C[C@@]2(C)[C@@H](CC[C@@H]3[C@@H]2CC[C@]2(C)[C@@H](O)CC[C@@H]32)CC1=O`: the T/C runs as follows: (dose: 100.0 mg/kg/injection, schedule: Q01DX Z (sc), vehicle: steriod suspending solution) 105 % of control; (dose: 200.0 mg/kg/injection, schedule: Q01DX Z (sc), vehicle: steriod suspending solution) 108 % of control; (dose: 400.0 mg/kg/injection, schedule: Q01DX Z (sc), vehicle: steriod suspending solution) 105 % of control; (dose: 800.0 mg/kg/injection, schedule: Q01DX Z (sc), vehicle: steriod suspending solution) 105 % of control.

Regarding `O=S(=O)(Nc1ccccc1F)c1cc(Cl)c(Cl)cc1Cl`, the T/C by setting is: under setting [9], 96 % of control; under setting [10], 96 % of control; under setting [11], 94 % of control.

`CSCCSc1ncnc2nc[nH]c12`: the T/C under setting [3] is 107 % of control, the T/C under setting [4] was 102 % of control and the T/C under setting [12] is 101 % of control.

As to `Cc1ccc(S(=O)(=O)OCCC2(C)CC2)cc1`, the T/C by setting is: under setting [13], 93 % of control; under setting [14], 90 % of control; under setting [15], 90 % of control.

Regarding `c1ccc(CNc2cccc3c(NCc4ccccc4)cccc23)cc1`, the T/C by setting is: under setting [13], 87 % of control; under setting [16], 86 % of control; under setting [3], 88 % of control; under setting [14], 95 % of control; under setting [17], 93 % of control; under setting [15], 88 % of control. Moreover, the T/C under setting [18] was 95 % of control.

As for `CCCCCC(C)(C)O`, the T/C was 96 % of control under setting [5]; 97 % of control under setting [9]; 103 % of control (dose: 187.0 mg/kg/injection, schedule: Q01DX001 (ip), vehicle: saline); 98 % of control under setting [19]; 101 % of control under setting [10]; 97 % of control (dose: 267.0 mg/kg/injection, schedule: Q01DX001 (ip), vehicle: saline). For the same compound, under “dose: 600.0 mg/kg/injection, schedule: Q01DX001 (ip), vehicle: saline”, the T/C was 92 % of control.

For the compound `Nc1ccc(S(N)(=O)=O)cc1`, the T/C is 114 % of control under setting [1], 95 % of control under setting [2] and 92 % of control under setting [20].

Regarding `O=C(Nc1ccc([N+](=O)[O-])cc1)Nc1ccc([N+](=O)[O-])cc1`, the T/C is 93 % of control (dose: 100.0 mg/kg/injection, schedule: Q01DX009 (ip), vehicle: Klucel (hydroxypropylcellulose) (HPC)); 109 % of control (dose: 100.0 mg/kg/injection, schedule: Q01DX009 (ip), vehicle: saline sonified); 109 % of control under setting [16]; 101 % of control (dose: 100.0 mg/kg/injection, schedule: Q04DX002 (ip), vehicle: Klucel (hydroxypropylcellulose) (HPC)); 104 % of control under setting [1]; 96 % of control (dose: 100.0 mg/kg/injection, schedule: Q04DX003 (ip), vehicle: saline sonified). Moreover, the T/C under setting [3] was 100 % of control; the T/C (dose: 200.0 mg/kg/injection, schedule: Q01DX009 (ip), vehicle: Klucel (hydroxypropylcellulose) (HPC)) was 94 % of control; the T/C (dose: 200.0 mg/kg/injection, schedule: Q01DX009 (ip), vehicle: saline sonified) is 110 % of control; the T/C under setting [17] was 90 % of control; the T/C (dose: 200.0 mg/kg/injection, schedule: Q04DX002 (ip), vehicle: Klucel (hydroxypropylcellulose) (HPC)) is 90 % of control; the T/C under setting [2] was 104 % of control. The T/C is 91 % of control (dose: 200.0 mg/kg/injection, schedule: Q04DX003 (ip), vehicle: saline sonified); 102 % of control under setting [4]; 88 % of control (dose: 400.0 mg/kg/injection, schedule: Q01DX009 (ip), vehicle: Klucel (hydroxypropylcellulose) (HPC)); 98 % of control (dose: 400.0 mg/kg/injection, schedule: Q01DX009 (ip), vehicle: saline sonified); 86 % of control under setting [18]; 97 % of control (dose: 400.0 mg/kg/injection, schedule: Q04DX002 (ip), vehicle: Klucel (hydroxypropylcellulose) (HPC)). In addition, the T/C reads like this: under setting [20], 98 % of control; (dose: 400.0 mg/kg/injection, schedule: Q04DX003 (ip), vehicle: saline sonified) 93 % of control; under setting [12], 97 % of control.

With `Cc1ccc(S(=O)(=O)CC(O)(/C=C/c2ccccc2)c2ccccc2)cc1` (centres undefined), the T/C (dose: 100.0 mg/kg/injection, schedule: Q01DX001 (ip), vehicle: acetone) is 98 % of control; the T/C (dose: 200.0 mg/kg/injection, schedule: Q01DX001 (ip), vehicle: acetone) was 93 % of control; the T/C (dose: 400.0 mg/kg/injection, schedule: Q01DX001 (ip), vehicle: acetone) was 89 % of control.

Take `OC1COC(n2cnc3c(=S)nc[nH]c32)C(O)C1O` (centres undefined): the T/C (dose: 5.0 mg/kg/injection, schedule: Q01DX001 (ip), vehicle: saline) is 98 % of control; the T/C (dose: 10.0 mg/kg/injection, schedule: Q01DX001 (ip), vehicle: saline) is 102 % of control; the T/C (dose: 20.0 mg/kg/injection, schedule: Q01DX001 (ip), vehicle: saline) is 98 % of control; the T/C (dose: 40.0 mg/kg/injection, schedule: Q01DX001 (ip), vehicle: saline) is 96 % of control; the T/C (dose: 50.0 mg/kg/injection, schedule: Q01DX001 (ip), vehicle: saline) was 115 % of control; the T/C (dose: 80.0 mg/kg/injection, schedule: Q01DX001 (ip), vehicle: saline) was 98 % of control. In addition, the T/C by setting is: under setting [5], 105 % of control and 100 % of control; under setting [19], 111 % of control and 100 % of control and 101 % of control; (dose: 400.0 mg/kg/injection, schedule: Q01DX001 (ip), vehicle: saline) 101 % of control and 103 % of control.

Consider `CCOc1ccccc1NCN1C(=O)c2ccccc2C1=O`, for which the T/C was 90 % of control under setting [16]; 223 % of control (dose: 200.0 mg/kg/injection, schedule: Q04DX002 (ip), vehicle: saline with Tween-80); 91 % of control (dose: 400.0 mg/kg/injection, schedule: Q04DX002 (ip), vehicle: saline with Tween-80).

Regarding `CC#CCOCC1CN(C)C(=O)O1` (centres undefined), the T/C runs as follows: (dose: 25.0 mg/kg/injection, schedule: Q01DX009 (ip), vehicle: saline) 95 % of control; (dose: 50.0 mg/kg/injection, schedule: Q01DX009 (ip), vehicle: saline) 98 % of control; (dose: 50.0 mg/kg/injection, schedule: Q04DX003 (ip), vehicle: saline) 106 % of control; under setting [9], 92 % of control; under setting [6], 101 % of control; under setting [10], 90 % of control. Besides, the T/C runs as follows: under setting [7], 104 % of control; under setting [11], 95 % of control; under setting [8], 101 % of control.

For the compound `O=Cc1[nH]c(=S)[nH]c(=O)c1Cc1cc([N+](=O)[O-])ccc1O`, the T/C was 93 % of control under setting [13], 104 % of control under setting [14] and 95 % of control under setting [15].
